Assay results reported in US9079868B2, “Selective glycosidase inhibitors and uses thereof” (Simon Fraser University, priority 2008, dated 2015).

Molecular target: O-GlcNAcase (Homo sapiens (Human), UniProt O60502)
Assay: Determination of KI values for inhibition of O-GlcNAcase activity (pNP-GlcNAc substrate, Dixon plots)
Format: biochemical
Conditions: PBS pH 7.4, 0.5 mM pNP-GlcNAc, 37° C., linear regression of a Dixon plot
Procedure: Assay for Determination of […] for Inhibition of O-GlcNAcase Activity
Experimental Procedure for Kinetic Analyses:
Enzymatic reactions are carried out in PBS buffer (pH 7.4) using pNP-GlcNAc as a substrate (0.5 mM) and monitored continuously at 37° C. at 400 nm using a Cary 3E UV-VIS spectrophotometer equipped with a Peltier temperature controller. Reactions are pre-heated in a 500 μL quartz cuvette for approximately 5 minutes followed by addition of 10 μL enzyme via syringe (final enzyme concentration 0.002 mg/mL). Reaction velocities are determined by linear regression of the linear region of the reaction progress curve between the first and third minutes. An inhibitor concentration range of ⅕ to 5 times K1 is used in each case. […] All K1 values are determined using linear regression of Dixon plots.

Sequence of O-GlcNAcase (O60502 whole entry): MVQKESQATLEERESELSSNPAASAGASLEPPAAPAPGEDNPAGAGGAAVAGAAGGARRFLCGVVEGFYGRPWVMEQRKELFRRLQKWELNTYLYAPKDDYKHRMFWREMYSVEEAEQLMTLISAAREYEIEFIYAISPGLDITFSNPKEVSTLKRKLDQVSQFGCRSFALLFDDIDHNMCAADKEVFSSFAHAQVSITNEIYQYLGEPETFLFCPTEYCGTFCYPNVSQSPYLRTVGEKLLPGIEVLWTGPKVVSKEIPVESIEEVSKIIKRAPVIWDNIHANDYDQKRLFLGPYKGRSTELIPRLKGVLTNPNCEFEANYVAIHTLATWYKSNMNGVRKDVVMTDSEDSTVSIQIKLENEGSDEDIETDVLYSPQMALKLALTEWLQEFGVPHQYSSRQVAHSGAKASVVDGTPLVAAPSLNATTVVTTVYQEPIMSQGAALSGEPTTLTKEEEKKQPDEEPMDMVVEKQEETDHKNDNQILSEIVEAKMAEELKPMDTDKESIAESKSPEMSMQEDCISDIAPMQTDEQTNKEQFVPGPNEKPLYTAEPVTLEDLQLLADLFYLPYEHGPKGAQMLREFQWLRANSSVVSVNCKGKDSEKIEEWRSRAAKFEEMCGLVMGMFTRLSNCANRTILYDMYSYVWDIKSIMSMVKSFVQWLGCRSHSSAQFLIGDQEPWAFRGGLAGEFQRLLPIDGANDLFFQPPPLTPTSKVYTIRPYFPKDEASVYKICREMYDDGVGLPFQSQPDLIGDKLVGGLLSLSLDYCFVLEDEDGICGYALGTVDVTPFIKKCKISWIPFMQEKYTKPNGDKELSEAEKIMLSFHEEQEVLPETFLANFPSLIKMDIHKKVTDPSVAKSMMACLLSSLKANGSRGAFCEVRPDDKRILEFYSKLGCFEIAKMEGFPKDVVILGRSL

With `CN(C)C1=N[C@@H]2[C@@H](O)[C@H](O)[C@@H](CO)[C@@H]2O1` [Compound 2, (3aR,4R,5R,6R,6aS)-2-(dimethylamino)-6-(hydroxymethyl)-4,5,6,6a-tetrahydro-3aH-cyclopenta[d]oxazole-4,5-diol] the Ki was 40 µM.
